Experimental data reported in PubChem BioAssay (NCI).
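Method: 48-hour compound exposure of cells in 96-well plates, five concentrations, linear interpolation of endpoints. GI50 is the concentration that inhibits growth by half. TGI: total growth inhibition.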

What was measured:
Assay in all cases: DTP human tumour cell line panel, 48 h
OVCAR-8 ovarian = system: OVCAR-8 ovarian
SK-OV-3 ovarian = system: SK-OV-3 ovarian
LOX IMVI melanoma = system: LOX IMVI melanoma
DU-145 prostate = system: DU-145 prostate
KM12 colon = system: KM12 colon
SK-MEL-2 melanoma = system: SK-MEL-2 melanoma
786-0 renal = system: 786-0 renal
NCI-H23 lung = system: NCI-H23 lung
OVCAR-5 ovarian = system: OVCAR-5 ovarian
HL-60(TB) leukemia = system: HL-60(TB) leukemia
SNB-75 CNS = system: SNB-75 CNS

| Structure (SMILES) | TGI (OVCAR-8 ovarian) [µM] | TGI (SK-OV-3 ovarian) [µM] | TGI (LOX IMVI melanoma) [µM] | TGI (DU-145 prostate) [µM] | TGI (KM12 colon) [µM] | TGI (SK-MEL-2 melanoma) [µM] | TGI (786-0 renal) [µM] | TGI (NCI-H23 lung) [µM] | TGI (OVCAR-5 ovarian) [µM] | TGI (HL-60(TB) leukemia) [µM] | TGI (SNB-75 CNS) [µM] | GI50 (KM12 colon) [µM] | GI50 (SK-MEL-2 melanoma) [µM] | GI50 (NCI-H23 lung) [µM] | GI50 (LOX IMVI melanoma) [µM] | GI50 (HL-60(TB) leukemia) [µM] | GI50 (SK-OV-3 ovarian) [µM] | GI50 (DU-145 prostate) [µM] | GI50 (OVCAR-5 ovarian) [µM] | GI50 (SNB-75 CNS) [µM] |
| --- | --- | --- | --- | --- | --- | --- | --- | --- | --- | --- | --- | --- | --- | --- | --- | --- | --- | --- | --- | --- |
| CC(=O)c1ccc(Nc2nc3ccccc3c3occc23)cc1 | > 100 | 58.8 | 61.7 | 75 | 44.3 | 48.6 | 21.7 | 46.6 | > 100 | 2.4 |  |  |  |  |  |  |  |  |  |  |
| CC(=O)Oc1ccc(C)c2c1[C@H]1CC[C@]3(C)[C@@H](OC(C)=O)CC[C@H]3[C@@H]1CC2 | 58.3 |  | 31.4 | 66.6 | 35.1 |  | 39.4 | 34.7 | > 100 | 51.5 | 54.5 |  |  |  |  |  |  |  |  |  |
| N#C/C(=C\c1ccccc1F)C(=O)c1ccccc1 | > 100 | > 100 | > 100 |  | > 100 | > 100 | > 100 | > 100 | > 100 | > 100 |  |  |  |  |  |  |  |  |  |  |
| O=C(N/N=C/c1cc(Cl)cc(Cl)c1[O-])c1ccccc1O.O=C(N/N=C/c1cc(Cl)cc(Cl)c1[O-])c1ccccc1O.[Fe+2] | 34.3 | 39.1 | 86.5 |  | 41.8 | 35.5 |  | 31.6 |  | 16.3 | 72.9 | 15.5 | 14.9 | 6 |  |  |  |  |  |  |
| Cc1ccc2nc(-c3nccn3C)cc(C(=O)NC(C)CN(C)C)c2c1 (centres undefined) | > 100 |  | > 100 | > 100 | > 100 | > 100 | > 100 | > 100 | > 100 | > 100 | > 100 |  |  |  |  |  |  |  |  |  |
| CC(C)(C)C1CCC2c3c([nH]c4ccccc34)C3C(=O)N(c4cc(Cl)ccc4Cl)C(=O)C3C2C1 (centres undefined) | > 100 | > 100 | > 100 | > 100 |  | > 100 | > 100 | > 100 | > 100 |  |  |  |  |  |  |  |  |  |  |  |
| CCOC(=O)C(CCSC)(CCSC)C(=O)OCC | > 100 | 72.2 | > 100 | > 100 | > 100 | > 100 | > 100 | > 100 | > 100 |  | > 100 |  |  |  |  |  |  |  |  |  |
| CN(CCO)c1nc(=O)c2c(n1C1OC(CO)C(O)C(O)C1O)CCCC2 (centres undefined) | > 100 | > 100 | > 100 |  | > 100 | > 100 | > 100 | > 100 | > 100 | > 100 | > 100 |  |  |  |  |  |  |  |  |  |
| CCOC(=O)C(C(=O)OCC)S(C)(=O)=O | > 100 | > 100 | > 100 |  | > 100 | > 100 | > 100 | > 100 | > 100 | > 100 |  |  |  |  |  |  |  |  |  |  |
| NCCCC(N)(C(=O)O)C(F)F (centres undefined) | > 1090 | > 5000 | > 5000 |  | > 5000 | > 5000 |  | > 5000 | > 4800 | > 5000 | > 5000 |  |  |  |  |  |  |  |  |  |
| COc1cc(Cn2c3ccccc3c3cc(C)cc(OC)c32)cc2c1[nH]c1ccccc12 | > 25 | > 25 | > 25 |  | > 25 | > 25 | > 25 |  | > 25 | > 25 |  | 10.2 |  |  | 8.19 | 12.3 |  |  |  |  |
| CC(=O)C(C(=O)C(=O)Nc1cc(Cl)c(Cl)cc1Cl)c1csc(N)n1 (centres undefined) | > 100 | > 100 | > 100 |  | > 100 | > 100 |  | > 100 | > 100 | > 100 | > 100 |  |  |  |  |  |  |  |  |  |
| CN(C)C1(N(C)C)Oc2c(c(=O)n(C)c(=O)n2C)C(c2ccc(F)cc2)C1(F)F (centres undefined) |  | > 100 | > 100 | > 100 | > 100 | > 100 | > 100 | > 100 | > 100 |  | > 100 |  |  |  |  |  |  |  |  |  |
| CC(C)(CN1CCCCC1)C(=O)CC(SCCS(=O)(=O)O)c1ccccc1 (centres undefined) | 65 | > 100 |  | 29.3 | 44.8 | 96.5 | 25.4 |  | 27 |  | 54.9 |  |  |  |  |  |  |  |  |  |
| COc1cc2cnc3c4cc(O)ccc4ccc3c2cc1OC | > 100 | > 100 | > 100 |  | > 100 | 87.2 | > 100 | > 100 | > 100 | > 100 | > 100 |  |  |  |  |  |  |  |  |  |
| O=S1(=O)OCCOS(=O)(=O)C1(Br)Br | > 100 | > 100 |  |  | > 100 | > 100 | > 100 | > 100 |  | > 100 | > 100 |  |  |  |  |  |  |  |  |  |
| COc1ccccc1NC(=O)C(=O)C(c1cnc2ccc([N+](=O)[O-])cc2n1)[N+](=O)[O-] (centres undefined) | > 100 | > 100 | > 100 |  | > 100 | > 100 | > 100 | > 100 | > 100 | > 100 | > 100 |  |  |  |  |  |  |  |  |  |
| COC(=O)CCc1cc(OC)c2oc(-c3ccc(OC)c(OC)c3)c(CO)c2c1 | > 100 | > 100 | > 100 | > 100 | > 100 | > 100 | > 100 | > 100 | > 100 | > 100 |  |  |  |  |  |  |  |  |  |  |
| C/C(CC(=O)Nc1cccc([N+](=O)[O-])c1)=N/NC(N)=S | > 100 | > 100 | > 100 |  | > 100 | > 100 | > 100 | > 100 | > 100 | > 100 | > 100 |  |  |  |  |  |  |  |  |  |
| O=C1CS(=O)c2ccccc2N1 (centres undefined) | > 100 | > 100 | > 100 |  | > 100 | > 100 | > 100 | > 100 | > 100 | > 100 | > 100 |  |  |  |  |  |  |  |  |  |
| Cn1cc(-c2csc(-c3cn(CCCN4CCCCC4)c4ccc(Br)cc34)n2)c2cccnc21 |  | 3.9 |  | 3.21 | 3.54 | 3.74 |  | 3.51 | 3.01 |  | 5.8 | 1.89 | 1.94 | 1.79 |  |  | 1.92 | 1.79 | 1.57 | 1.44 |
